Measurements taken from patent EP4759817A1, “HETEROARYL COMPOUND, PREPARATION METHOD THEREFOR, AND USE THEREOF IN MEDICINE” (Jiangsu Hengrui Pharmaceuticals Co., Ltd., priority 2023, dated 2025).

Columns and labels:
[1] = molecular target: T1, Recombinant human PRMT5: MEP50 protein (Homo sapiens, UniProt O14744); test: Inhibitory activity against human PRMT5 enzymatic activity (HTRF quantification of SAH, +MTA); type: biochemical; settings: +1 µM MTA; histone H4 peptide substrate (1-21), SAM; 37°C 120 min
T1 construct: purchased active motif 31521
T1 sequence (O14744 whole entry): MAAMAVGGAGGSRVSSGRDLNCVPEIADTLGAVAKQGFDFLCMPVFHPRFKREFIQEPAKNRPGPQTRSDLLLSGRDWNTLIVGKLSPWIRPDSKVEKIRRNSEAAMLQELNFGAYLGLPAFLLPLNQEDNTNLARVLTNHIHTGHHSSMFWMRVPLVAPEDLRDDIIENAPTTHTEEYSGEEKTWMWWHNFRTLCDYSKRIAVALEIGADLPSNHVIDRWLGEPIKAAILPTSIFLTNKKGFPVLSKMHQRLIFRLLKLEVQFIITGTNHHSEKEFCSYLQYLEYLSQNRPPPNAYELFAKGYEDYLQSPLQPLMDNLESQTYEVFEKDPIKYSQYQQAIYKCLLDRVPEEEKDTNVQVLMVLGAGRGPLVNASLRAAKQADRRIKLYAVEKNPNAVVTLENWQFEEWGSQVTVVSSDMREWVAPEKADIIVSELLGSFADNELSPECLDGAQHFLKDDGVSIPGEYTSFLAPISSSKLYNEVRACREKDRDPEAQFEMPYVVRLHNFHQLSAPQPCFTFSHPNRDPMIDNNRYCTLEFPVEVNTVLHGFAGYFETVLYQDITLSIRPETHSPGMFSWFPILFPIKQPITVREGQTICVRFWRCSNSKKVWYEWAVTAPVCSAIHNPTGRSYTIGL
T1 sequence (Q9BQA1 whole entry partner): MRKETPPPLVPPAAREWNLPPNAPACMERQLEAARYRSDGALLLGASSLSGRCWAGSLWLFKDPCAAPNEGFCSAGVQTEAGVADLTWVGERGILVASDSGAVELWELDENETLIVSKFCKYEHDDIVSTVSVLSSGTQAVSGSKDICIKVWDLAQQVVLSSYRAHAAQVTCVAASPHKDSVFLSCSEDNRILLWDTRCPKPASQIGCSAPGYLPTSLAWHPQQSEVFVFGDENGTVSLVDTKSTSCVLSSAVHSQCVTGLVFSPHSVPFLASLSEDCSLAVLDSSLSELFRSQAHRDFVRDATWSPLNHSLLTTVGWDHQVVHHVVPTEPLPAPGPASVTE
Description: • 1. Recombinant human PRMT5: MEP50 protein (active motif, 31521) • 2. EPIgeneous Methyltransferase kit (cisbio, 62SAHPEH) • 3. 96-well plate (Sangon Biotech, F610960-0010) • 4. 384-well white plate (Perkin Elmer, 6007290) • 5. 1 M Tris-HCl [pH 8.5] (Sangon Biotech, B548141) • 6. Histone H4 peptide substrates (1-21) (BPS bioscience, 52014) • 7. 5'-deoxy-5'-(methylthio)adenosine (Aladdin, D168979-25 mg) • 8. Tween-20 (Sangon Biotech, A100777-0500) • 9. DMSO (Sigma, D2650) • 10. Incubator (Shanghai Boxun Medical Biological Instrument Corp.) • 11. PHERAstar FS microplate reader (BMG Labtech)
PRMT5 can induce the transfer of a methyl group from S-adenosylmethionine (SAM) to a histone H4 peptide substrate (1-21), generating S-adenosylhomocysteine (SAH). In this experiment, the amount of SAH produced in the reaction is quantified using a Homogeneous Time-Resolved Fluorescence (HTRF) method to evaluate the inhibitory activity of compounds against PRMT5 enzymatic activity.
The sample diluent containing (or not containing) 1 µM 5 '-deoxy-5' - (methylthiyl) adenosine (MTA) was prepared using the EPIgeneous Diluent Buffer from the EPIgeneous Methyltransferase kit. With reference to the instructions, SAM and SAH standards were serially diluted and dispensed at 10 µL per well (in duplicate for each concentration). 2 µL of EPIgeneous Detection Buffer 1 was added to each well, and the plate was centrifuged, shaken to mix thoroughly, and placed at room temperature for 10 min. The SAH d2 Reagent was diluted 32-fold with EPIgeneous Detection Buffer 2, and 4 µL of the diluted SAH-d2 solution was added to each well. The plate was centrifuged and shaken for 2 min to mix thoroughly. The SAH Tb Cryptate Antibody was diluted 50-fold in EPIgeneous Detection Buffer 2. 4 µL of the diluted Tb Cryptate Antibody solution was added to each well, and the plate was centrifuged, shaken for 2 min to mix thoroughly, and left to stand at room temperature for 60 min, followed by reading on a PHERAstar FS microplate reader to obtain the 665/620 ratio. Plotting SAH concentration against the ratio to generate an x-y curve yields a corresponding calculation formula.
Reaction buffer (1×): 50 mM Tris-HCl [pH 8.5], 1 mM DTT, 0.005% Tween-20.
Compound preparation: a 20 mM solution of test compound in 100% DMSO was diluted in 100% DMSO to 1 mM as the highest concentration, and the solution at this concentration was then subjected to a 10-point, 3-fold serial dilution in 100% DMSO in a 96-well plate. Wells containing 100% DMSO served as the blank control. The above-described serially diluted compounds and the 100% DMSO were diluted 20-fold with the reaction buffer to prepare 5× compound solutions, which were mixed thoroughly for use.
The PRMT5:MEP50 was diluted in the reaction buffer to a final concentration of 12.5 nM. Then, 4 µL of the 12.5 nM PRMT5:MEP50 solution was added to each well of a 384-well plate. Wells containing 4 µL of the reaction buffer served as the negative control wells. 2 µL of the 5× compound solution was added to each well. For the negative control wells (no enzyme, no compound) and the positive control wells (no compound), 2 µL of 5% DMSO was added. The plate was sealed with a membrane, centrifuged, shaken for 2 min to mix thoroughly, and placed at room temperature for 20 min.
Preparation of substrate mixture solution: The substrate mixture solution containing 1.5 µM histone H4 peptide substrate (1-21) and 2.5 µM SAM, or 1.5 µM histone H4 peptide substrate (1-21), 2.5 µM SAM and 2.5 µM MTA was prepared in the reaction buffer.
The reaction was initiated by adding 4 µL of the substrate mixture solution (-/+ MTA) to each well. The plate was sealed with a membrane, centrifuged, shaken for 2 min to mix thoroughly, and incubated at 37°C for 120 min in a constant temperature incubator.
Detection: The detection was performed by using the EPIgeneous Methyltransferase kit. […]

HCT116 MTAP-/- cells = test: HCT116 MTAP-/- cell proliferation assay (CellTiter-Glo, 10 days); type: cell-based; settings: Homo sapiens, HCT-116, 240 h, growth inhibition, CTG assay Day 10
Source text: • I. Experimental materials and instruments • 1. HCT116 cell line (Nanjing Kebai Biotechnology Co., Ltd., CBP60028) • 2. HCT116 MTAP-/- cell line (Nanjing Kebai Biotechnology Co., Ltd., CBP75002) • 3. DMSO (Sigma, D2650) • 4. McCoy's 5A medium (Gibco, 16600-082) • 5. Foetal bovine serum (FBS) (Gibco, 10091148) • 6. Phosphate buffered saline (DPBS) pH 7.4 (Gibco, 14190-144) • 7. Pen strep (PS) (Gibco, 15140-122) • 8. 0.25% Typsin-EDTA (1×) (Gibco, 25200-072) • 9. CellTiter-Glo® Luminescent Cell Viability Assay (Promega, G7572) • 10. 96-well round-bottom plate (JET, TCP002096) • 11. 96-well black clear bottom plate (Hangzhou Xinyou Biotechnology Co., Ltd., 060096) • 12. 1.2 mL 96-well deep well plate, clear, sterile, square-well, V-bottom (Titan, 02089063) • 13. 15-mL centrifuge tube (Titan) • 14. Biosafety cabinet (Thermo, 1300AII) • 15. Cell counter (Countstar, IC1000) • 16. Incubator (Thermo, I160) • 17. Centrifuge (Beckman coulter, Allegra X-12 centrifuge) • 18. PHERAstar FS microplate reader (BMG Labtech) • II. Experimental procedure • 1. Cell plating (Day 0) • a) The cell morphology was observed under a microscope to ensure confluence reached approximately 90%. • b) The cell supernatant was aspirated, the cells were washed once with PBS, and then the PBS was removed; and the cells were digested by adding an appropriate amount of trypsin, and left to stand at 37°C for 3 minutes. • c) The digestion was terminated by adding an equal volume of McCoy's 5A medium containing 10% FBS, and the cell suspension was collected and centrifuged at 300 g for 3 minutes; and the cells were resuspended in an appropriate amount of fresh medium. • d) The resuspended cell suspension was taken for counting. • e) The cell suspension was diluted to 1e4/mL using McCoy's 5A medium containing 10% FBS, and seeded at 50 µL per well, corresponding to 500 cells/well for HCT116 and 500 cells/well for HCT116 MTAP-/-. • f) The cell plate was placed in a 37°C, 5% carbon dioxide incubator and incubated overnight. • 2. Compound treatment (Day 1) • a) Each compound was serially diluted in DMSO to generate a 9-point concentration gradient (starting concentration: 10000 µM, 3-fold dilution; the highest concentration may be adjusted individually based on IC50 of different compounds); for example, in a 96-well round-bottom compound-dilution plate, 5 µL of the compound was sequentially diluted into 10 µL of DMSO. • b) Each concentration point of every compound was then diluted 250-fold into the corresponding volume of McCoy's 5A medium. • c) To each cell plate, 50 µL of the diluted compound solution as described above was added sequentially to the cell supernatant (50 µL/well). • d) The compound-treated cell plate was placed in a 37°C, 5% carbon dioxide incubator and incubated. • 3. Re-digestion, re-plating and compound treatment (Day 5) • a) After 5 days of compound treatment, the compound-containing medium was aspirated, and the cells were rinsed once with PBS (100 µL/well); and the PBS was removed immediately. • b) The cells were digested by adding 25 µL of trypsin and incubated at 37°C for 3 minutes, and then the digestion was terminated by adding 175 µL/well of McCoy's 5A medium containing 10% FBS. • c) The cells were mixed thoroughly using a pipette, and re-plated at 1 : 20; and specifically, 10 µL of the cell suspension was aspirated to a new 96-well plate (pre-filled with 40 µL of McCoy's 5A medium containing 10% FBS. • d) Compounds were prepared and added according to steps a) to c) in Section 2, with 50 µL added per well. • e) The compound-treated cell plate was placed in a 37°C, 5% carbon dioxide incubator and incubated. • 4. […]

[2] = Pharmacokinetic evaluation in Nu/Nu mice (plasma, LC-MS/MS); type: in vivo; settings: mouse, in vivo, po, i.g., 100 mg/kg
Description: Using Nu/Nu mice as the test animals, the plasma concentrations of the example compounds at different time points were determined by LC-MS/MS following oral gavage (i.g.) administration. The pharmacokinetic behaviours of the compounds of the present disclosure in Nu/Nu mice were investigated, and their pharmacokinetic profiles were evaluated.
Compound 1-p1, compound 2-p1, compound 8-p1 and comparative example 1.
A total of 36 female Nu/Nu mice (supplied by Vital River Laboratory Animal Technology Co., Ltd.) were randomly divided into 4 groups.
An appropriate amount of each test compound was weighed and dissolved in 5% DMSO+20% PEG400+70% (10% TPGS)+5% (1% HMPC K100LV) to prepare a 10 mg/mL colourless clear solution.
The administration dosage was 100 mg/kg, and the administration volume was 10 mL/kg.
Mice were not fasted. After oral gavage administration, blood (0.1 mL) was collected from the orbital cavity before administration, and at 0.25 h, 0.5 h, 1.0 h, 2.0 h, 4.0 h, 6.0 h, 8.0 h, 11.0 h and 24.0 h after administration. The blood was placed into EDTA-K2 anticoagulant tubes and centrifuged at 10000 rpm for 1 minute (4°C) to separate plasma. The plasma was separated within 1 h and stored at -20°C until analysis. The entire process from blood collection to centrifugation was performed in ice bath conditions.
Determination of test compound contents in plasma of Nu/Nu mice after administration of different compounds: To 20 µL of plasma samples from each time point in Nu/Nu mice, 200 µL of acetonitrile and 25 µL of verapamil (100 ng/mL) were added. The mixture was vortex-mixed for 5 minutes and centrifuged at 4000 rpm for 15 minutes. 90 µL of water and 90 µL of the supernatant were vortex-mixed for 5 minutes. 2 µL (for compound 1-p1), 2 µL (for compound 2-p1), 1 µL (for compound 8-p1), or 0.5 µL (for comparative example 1) of the supernatant was taken for LC-MS/MS analysis receptively.

| Compound | IC50 [1] [nM] | also measured |
| --- | --- | --- |
| [2H]C([2H])([2H])n1ncc(-c2ccc3c(=O)[nH]nc(CN)c3c2)c1-c1c(F)c(Cl)c2c(c1C#N)O[C@H]1CC[C@H]1O2 (atropisomer, axis not shown; (M)) [Compound 11-p3, (M)-(2aS,8aR)-5-(4-(4-(aminomethyl)-1-oxo-1,2-dihydrophthalazin-6-yl)-1-(methyl-d3)-1H-pyrazol-5-yl)-7-chloro-6-fluoro-1,2,2a,8a-tetrahydrobenzo[b]cyclobuta[e][1,4]dioxine-4-carbonitrile] | 5.4 | IC50 (HCT116 MTAP-/- cells): 4.6 nM |
| [2H]C([2H])([2H])n1ncc(-c2ccc3c(=O)[nH]nc(CN)c3c2)c1-c1c(F)cc2c(c1C#N)O[C@@H]1CC[C@@H]1O2 (single isomer, unassigned) [Compound 2-p4] | 5.87 | – |
| [2H]C([2H])([2H])n1ncc(-c2ccc3c(=O)[nH]nc(CN)c3c2)c1-c1c(F)cc2c(c1C#N)N1CCC[C@@H]1CO2 (single isomer, unassigned) [Compound 5-p2] | 4.91 | – |
| [2H]C([2H])([2H])n1ncc(-c2ccc3c(=O)[nH]nc(CN)c3c2)c1-c1c(F)cc2c(c1C#N)N1CCC[C@@H]1CO2 (single isomer, unassigned) [Compound 5-p1] | 7.67 | – |
| Cn1ncc(-c2ccc3c(=O)[nH]nc(CN)c3c2)c1-c1c(F)cc2c(c1C#N)OCCO2 (atropisomer, axis not shown) [Comparative example 1, reference compound] | – | Vd/F ([2]; read-out: Apparent volume of distribution V/F): 132 L/kg; AUC(0-t) ([2]; read-out: Area under the curve AUC0-t): 1720 ng·h/mL; CL/F ([2]; read-out: Clearance CL/F): 960 mL/min/kg; half-life ([2]; read-out: Half life T1/2 (converted)): 1.6 h; Cmax ([2]; read-out: Plasma concentration Cmax): 657 ng/mL; IC50 (HCT116 MTAP-/- cells): 70.8 nM |
| [2H]C([2H])([2H])n1ncc(-c2ccc3c(=O)[nH]nc(CN)c3c2)c1-c1c(F)cc2c(c1C#N)O[C@H]1CC[C@H]1O2 (single isomer, unassigned) [Compound 2-p3] | 5.31 | – |
| [2H]C([2H])([2H])n1ncc(-c2ccc3c(=O)[nH]nc(CN)c3c2)c1-c1c(F)cc2c(c1C#N)OCC21CC1 [Compound 12, 6-(4-(4-(aminomethyl)-1-oxo-1,2-dihydrophthalazin-6-yl)-1-(methyl-d3)-1H-pyrazol-5-yl)-5-fluoro-2H-spiro[benzofuran-3,1'-cyclopropane]-7-carbonitrile] | 6.39 | – |
| Cn1ncc(-c2ccc3c(=O)[nH]nc(CN)c3c2)c1-c1c(F)cc2c(c1C#N)O[C@@H]1CC[C@@H]1O2 (atropisomer, axis not shown; (P)) [Compound 1-p4, (P)-(2aR,8aS)-5-(4-(4-(aminomethyl)-1-oxo-1,2-dihydrophthalazin-6-yl)-1-methyl-1H-pyrazol-5-yl)-6-fluoro-1,2,2a,8a-tetrahydrobenzo[b]cyclobuta[e][1,4]dioxine-4-carbonitrile] | 5.48 | – |
| [2H]C([2H])([2H])n1ncc(-c2ccc3c(=O)[nH]nc(CN)c3c2)c1-c1c(F)cc2c(c1C#N)N1CCC[C@H]1CO2 (single isomer, unassigned) [Compound 8-p2] | 3.86 | – |
